Experiments:
Type in all cases: in vivo
[1] = system: diamondback moth (Plutella xylostella); experiment: Test Method 10: sprayed cabbage seedling, third-instar larvae of diamondback moth (formulation per Formulation Example 5); settings: 120 h, spray 20 mL/seedling, after 5 days
Description: (§1) Next, Test Examples are used to show effects of the Present compounds on harmful arthropods. In the following Test Examples, the tests were carried out at 25°C.
(§2) Each test compound is made to a formulation according to a similar method to that described in the Formulation Example 5, and thereto is added water containing 0.03 v/v% of Shindain (registered trademark) to prepare a diluted solution containing a prescribed concentration of the test compound.
(§3) Cabbage (Brassicae oleracea) seedling (on the developmental stage of the third to fourth true leaf) is planted in a container, and the diluted solutions are sprayed to the seedling at a ratio of 20 mL/seedling. Thereafter, ten of third-instar larvae of diamondback moth (Plutella xylostella) are released. After 5 days, the number of the surviving insects is counted, and the mortality of insects is calculated by the following equation. [formula]

[2] = system: Western corn rootworm (Diabrotica virgifera virgifera); experiment: whole plant or invertebrate; settings: 120 h
Description: as §1
Each 1 mg of the test compounds is dissolved in 50 µL of a mixed solution consisting of 5% of polyoxyethylene sorbitan mono-cocoate and 95% of acetone by volume ratio. Thereto is added water containing 0.03% by volume of Shindain (registered trademark) to prepare a diluted solution containing a prescribed concentration of the test compound.
A young seedling of corn (Zea mays) is immersed into the diluted solution for 30 seconds. Thereafter, two seedlings are installed in a plastic petri dish (90 mm […]), and 10 of second-instar larvae of Western corn rootworm (Diabrotica virgifera virgifera) are released into the dish. After 5 days, the number of the dead insects is counted, and the mortality of insects is calculated by the following equation. Mortality (%) = (Numberofdeadinsects/10) × 100 [formula]

[3] = system: diamondback moth (Plutella xylostella); experiment: Test Method 4: sprayed cabbage, cut aerial part, second-instar larvae of diamondback moth; settings: 120 h, spray 20 mL/seedling, after 5 days
Description: (§4) Next, Test Examples are used to show effects of the Present compounds on harmful arthropods. In the following Test Examples, the tests were carried out at 25°C. Each test compound is made to a formulation according to a similar method to that described in the Formulation Example 1, and thereto is added water containing 0.03 v/v% of Shindain (registered trademark) to prepare a diluted solution containing a prescribed concentration of the test compound. Cabbage (Brassicae oleracea) seedling (on the developmental stage of the second to third true leaf) is planted in a container, and the diluted solutions are sprayed to the seedling at a ratio of 20 mL/seedling. Thereafter, the aerial part of the seedling is cut out and then is installed into a container in which a filter paper is placed at the bottom of the container. Five of second-instar larvae of diamondback moth (Plutella xylostella) are released into the container. After 5 days, the number of the surviving insects is counted, and the mortality of insects is calculated by the following equation. [formula]

[4] = system: housefly (Musca domestica); experiment: Test Method 8: coated glass vial contact test, housefly female adults; settings: 24 h, 40 mg/m^2 on vial inner face, 1 day
Description: as §1
An acetone solution which is adjusted to 800 ppm of each test compound is poured into a 20 mL glass vial, and the test compound is coated uniformly on inner face of the vial so as to 40 mg/m^2 of the test compound treated, and the vial is then dried.
5 housefly (Musca domestica) female adults are released into the treated vial, and the vial is then covered with lid. After the prescribed time, the state of the housefly is examined, and the mortality is calculated by the following equation. [formula]

[5] = system: common house mosquito (Culex pipiens pallens); experiment: Test Method 12: last instar larvae of common house mosquito released into diluted solution; settings: 24 h, after 1 day
Description: as §1
Each test compound is formulated to a test formulation according to a similar method to that described in the Formulation Example 1, and water is added in preparing for a diluted solution containing a prescribed concentration of the test compound.
Into the diluted solution, 30 last instar larvae of common house mosquito (Culex pipiens pallens) are released, and after 1 day, the state of the house mosquito larvae is examined, and the mortality is calculated by the following equation. [formula]

[6] = system: cotton worm (Spodoptera litura); experiment: Test Method 3: sprayed cabbage, cut aerial part, second-instar larvae of cotton worm; settings: 120 h, spray 20 mL/seedling, after 5 days
Description: as §4, with “cotton worm (Spodoptera litura)” for “diamondback moth (Plutella xylostella)”

[7] = system: cotton worm (Spodoptera litura); experiment: Test Method 9: sprayed cabbage seedling, third-instar larvae of cotton worm (formulation per Formulation Example 5); settings: 144 h, spray 20 mL/seedling, after 6 days
Description: as §1, §2
as §3, with “cotton worm (Spodoptera litura)” for “diamondback moth (Plutella xylostella)”, “6” for “5”

[8] = system: German cockroach (Blattella germanica); experiment: Test Method 6: coated glass vial contact test, German cockroach male adults; settings: 72 h, 40 mg/m^2 on vial inner face, 3 days
Description: as §1
An acetone solution which is adjusted to 800 ppm of each test compound is poured into a 50 mL glass vial, and the test compound is coated uniformly on inner face of the vial so as to 40 mg/m^2 of the test compound treated, and the vial is then dried.
5 German cockroach (Blattella germanica) male adults are released into the treated vial, and the vial is then covered with lid. After the prescribed time, the state of the German cockroach is examined, and the mortality is calculated by the following equation. [formula]

[9] = system: Haemaphysalis longicornis; experiment: Test Method 7: coated glass vial contact test, Haemaphysalis longicornis nymphs; settings: 48 h, 100 mg/m^2 on vial inner face, 2 days
Description: An acetone solution which is adjusted to 2000 ppm of each test compound is poured into a 20 mL glass vial, and the test compound is coated uniformly on inner face of the vial so as to 100 mg/m^2 of the test compound treated, and the vial is then dried.
5 Haemaphysalis longicornis nymphs are released into the treated vial, and the vial is then covered with lid. After the prescribed time, the state of the Haemaphysalis longicornis is examined, and the mortality is calculated by the following equation.

SMILES | mortality at 50 ppm [1] [%] | mortality at 200 ppm [1] [%] | mortality at 200 ppm [2] [%] | mortality at 500 ppm [3] [%] | mortality at 40 mg/m2, 40 mg/m2 [4] [%] | mortality at 3.5 ppm [5] [%] | mortality at 500 ppm [6] [%] | mortality at 200 ppm [7] [%] | mortality at 40 mg/m2, 40 mg/m2 [8] [%] | mortality at 100 mg/m2, 100 mg/m2 [9] [%]
CNS(=O)(=O)c1c(-c2cnc(OCC(F)(F)C(F)(F)F)n(C)c2=O)nc2ccc(I)cn12 [compound 7] | ≥ 80 | ≥ 80 | ≥ 80 | ≥ 80 | ≥ 80 | > 90 | ≥ 80 | ≥ 80 |  | 
CN(C)S(=O)(=O)c1c(-n2cnc3ccc(OC(F)(F)F)cc3c2=O)nc2ccc(I)cn12 [compound 11] | ≥ 80 | ≥ 80 | ≥ 80 | ≥ 80 |  |  | ≥ 80 | ≥ 80 |  | 
CNS(=O)(=O)c1c(-c2cnc(OCC(F)(F)C(F)(F)F)n(C)c2=O)nc2cc(I)ccn12 [compound 8] | ≥ 80 | ≥ 80 | ≥ 80 | ≥ 80 | ≥ 80 | > 90 | ≥ 80 | ≥ 80 | ≥ 80 | 
CN(C)S(=O)(=O)c1c(-c2ccc(OCC(F)(F)C(F)(F)F)n(C)c2=O)nc2ccc(Br)cn12 [compound 3] | ≥ 80 | ≥ 80 | ≥ 80 | ≥ 80 |  |  | ≥ 80 | ≥ 80 |  | 
CNS(=O)(=O)c1c(-c2ccc(OCC(F)(F)C(F)(F)F)n(C)c2=O)nc2ccc(I)cn12 [compound 4] | ≥ 80 | ≥ 80 | ≥ 80 | ≥ 80 | ≥ 80 | > 90 | ≥ 80 | ≥ 80 |  | ≥ 80
Cn1c(OCC(F)(F)C(F)(F)F)ncc(-c2nc3ccc(Br)cn3c2S(N)(=O)=O)c1=O [compound 6] | ≥ 80 | ≥ 80 | ≥ 80 | ≥ 80 |  |  | ≥ 80 | ≥ 80 |  | 
CNS(=O)(=O)c1c(-n2cnc3ccc(OC(F)(F)F)cc3c2=O)nc2ccc(I)cn12 [compound 12] | ≥ 80 | ≥ 80 | ≥ 80 | ≥ 80 |  |  | ≥ 80 | ≥ 80 |  | 
Cn1c(OCC(F)(F)C(F)(F)F)ncc(-c2nc3ccc(Br)cn3c2S(=O)(=O)NC2CC2)c1=O [compound 5] | ≥ 80 | ≥ 80 |  | ≥ 80 | ≥ 80 | > 90 | ≥ 80 | ≥ 80 | ≥ 80 | 
CNS(=O)(=O)c1c(-c2cnc(OCC(F)(F)C(F)(F)F)n(C)c2=O)nc2ccc(C(F)(F)F)cn12 [compound 9] | ≥ 80 | ≥ 80 | ≥ 80 | ≥ 80 |  | > 90 | ≥ 80 | ≥ 80 |  | 
CCNS(=O)(=O)c1c(-c2ccc(OCC(F)(F)C(F)(F)F)n(C)c2=O)nc2ccc(Br)cn12 [compound 2] | ≥ 80 | ≥ 80 | ≥ 80 | ≥ 80 |  |  | ≥ 80 | ≥ 80 |  | 
CNS(=O)(=O)c1c(-c2ccc(OCC(F)(F)C(F)(F)F)n(C)c2=O)nc2ccc(C(F)(F)F)cn12 [compound 1] | ≥ 80 | ≥ 80 |  | ≥ 80 | ≥ 80 | > 90 | ≥ 80 | ≥ 80 |  | 
CNS(=O)(=O)c1c(-c2cnc(OCC(F)(F)C(F)(F)F)n(C)c2=O)nc2cc(C(F)(F)F)ccn12 [compound 10] | ≥ 80 | ≥ 80 | ≥ 80 | ≥ 80 | ≥ 80 | > 90 | ≥ 80 | ≥ 80 | ≥ 80 | 
